# Assays:
# [1] = test system: HaCaT cells; test: ROS generation (DCFH-DA) in H2O2-treated HaCaT cells; format: cell-based, human; conditions: DP 50, 100, 200 μM; H2O2 500 μM, 24 h; DCFH-DA 25 μM, 30 min; n = 3
# Description: (§1) The cell line used in the experiment, the HaCaT cell line, a human keratinocyte, was purchased from the Korea Cell Line Bank (KCLB, Seoul, Republic of Korea). HaCaT cells were cultured in a DMEM medium supplemented with 10% FBS and 1% penicillin–streptomycin. The cells were subcultured every 2 to 3 days in an incubator maintained at 37 °C and 5% CO2.
# HaCaT cells were seeded at 1 × 10^4 cells per well in a 96-well black plate and cultured for 24 h. The cultured cells were treated with DP at concentrations of 50, 100, and 200 μM and then exposed to 500 μM H2O2 for 24 h to induce ROS generation. After H2O2 treatment, the cells were stained with 25 μM dichlorodihydro-fluorescein diacetate (DCFH-DA) for 30 min. The fluorescence intensity corresponding to intracellular ROS production was measured using a fluorescent spectrophotometer at an excitation wavelength of 485 nm and an emission wavelength of 530 nm. The results were expressed as ROS production (%) relative to the fluorescence measurement value of the untreated control, which was set to 100.
# [2] = test system: MITF mRNA; test: RT-PCR of MITF mRNA in α-MSH-stimulated B16F10 cells; format: cell-based, mouse; conditions: 0.1, 1, and 10 μM; α-MSH 200 nM; normalized to GAPDH
# Description: (§2) B16F10 melanoma cells were obtained from the KCLB and cultured in DMEM medium supplemented with 10% FBS (Gibco BRL, Grand Island, NY, USA) and 1% penicillin. The cells were incubated in a humidified incubator at 37 °C and 5% CO2.
# (§3) Total RNA was extracted using the High Pure RNA Isolation Kit (Invitrogen Co., Waltham, MA, USA) according to the manufacturer’s instructions and quantified using a NanoDrop (Thermo Scientific, Waltham, MA, USA). For the reverse transcription reaction, 1 μg of isolated RNA and 1 μL of oligo DT (100 pM) were combined with DEPC to a total volume of 11 μL, followed by the reverse transcription reaction using the RT Premix Kit (Bioneer Co., Daejeon, Republic of Korea) as per the manufacturer’s protocol. PCR for MITF, Tyrosinase, and MC1R genes was conducted using 2 μL of the cDNA products obtained from the reverse transcription reaction, with the PCR Premix Kit (Bioneer Co.) according to the manufacturer’s instructions. The cDNA products amplified by reverse transcription and polymerase chain reaction were analyzed by electrophoresis on 2.0% agarose gels containing ethidium bromide.
# [3] = test system: B16F10 melanoma cells; test: Cytotoxicity (MTT) in B16F10 melanoma cells; format: cell-based, mouse; conditions: 12.5, 50, and 100 μM, 24 h
# Description: as §2
# To determine the cytotoxicity of DP and establish the concentration range for the experiment, an MTT assay was conducted. Cells were seeded in 96-well plates at a density of 1.0 × 10^4 cells/well. After 24 h, once the cells were fully attached, the medium was replaced with fresh medium containing 200 nM α-MSH and various concentrations of DP. After another 24 h of incubation, an MTT assay was performed.
# [4] = test system: HaCaT cells; test: Cell viability (MTT) of H2O2-treated HaCaT cells; format: cell-based, human; conditions: DP 50, 100, 200 μM with H2O2 500 μM, 24 h, n = 3
# Description: as §1
# To assess the cytotoxicity of DP and H2O2, cells (1 × 10^4 in a 96-well plate) were cultured at 37 °C and 5% CO2 for 24 h. The cultured cells were then treated with DP and H2O2. After 24 h of treatment, 10 μL of MTT (5 mg/mL) solution was added, and the cells were incubated for 4 h. Following this, the supernatant was removed, and 100 μL of DMSO was added to each well. The absorbance was measured at 550 nm using an ELISA reader.
# [5] = Ferric reducing antioxidant power (FRAP); format: biochemical; conditions: FRAP reagent pH 3.6, 5 min, 37 °C, 593 nm, n = 3
# Description: FRAP was measured using the method adapted from Benzie and Strain [46]. The FRAP reagent was prepared by mixing a 300 mM sodium acetate buffer (pH 3.6), a 10 mM 2,4,6-tripyridyl-s-triazine (TPTZ) solution dissolved in 40 mM HCl, and a 20 mM FeCl3 solution in a 10:1:1 ratio just before the experiment. A 10 μL sample of each concentration was mixed with 200 μL of FRAP reagent, incubated for 5 min at 37 °C, and then the absorbance was measured at 593 nm using a Microplate Spectrophotometer (xMarkTM, BIO-RAD, Hercules, CA, USA). The FRAP value of the sample was determined by applying the absorbance values to a standard calibration curve prepared with 0–5 mM FeSO4·H2O, and the results were expressed as FeSO4 equivalent mM/μM.
# [6] = previous research; cited from earlier work
# From the text: (§4) This study aims to evaluate the antioxidant and skin-whitening effects of this novel decapeptide (DP) through in vitro and in silico analyses and to establish its potential as a new skin-whitening agent.
# [7] = test system: tyrosinase; conditions: previous research; cited from earlier work
# From the text: as §4
# [8] = test system: tyrosinase mRNA; test: RT-PCR of tyrosinase mRNA in α-MSH-stimulated B16F10 cells; format: cell-based, mouse; conditions: 0.1, 1, and 10 μM; α-MSH 200 nM; normalized to GAPDH
# Description: as §2, §3
# [9] = ABTS radical scavenging activity; format: biochemical; conditions: n = 3
# Description: The ABTS radical scavenging activity of C. notate head hydrolysate was determined by an adaptation of the ABTS radical cation decolorization assay of Re et al.. A 7 mM ABTS solution and a 2.45 mM potassium persulfate (Sigma Co., Fukushima, Japan) solution were mixed (v/v) to a final concentration and allowed to stand in the dark at room temperature (RT) for 24 h. Afterward, distilled water was added to dilute the solution until the absorbance at 732 nm reached 0.70 (±0.02). Then, 990 μL of this diluted ABTS solution was mixed with 10 μL of the sample solution and incubated at RT for 1 min. The absorbance was measured at 732 nm (Figure 1).
# [10] = test system: mushroom tyrosinase; test: Tyrosinase inhibitory activity (DOPA chrome formation); format: biochemical; conditions: DL-DOPA substrate, pH 6.8, 37 °C, 10 min, 475 nm
# Description: The inhibitory activity of tyrosinase, which is involved in the key steps of melanin synthesis, was measured using a colorimetric method modified from Masamoto et al. by detecting the formation of DOPA chrome as a result of the enzyme’s action. As a substrate, a mixture containing 0.2 mL of 5 mM DL-DOPA solution, 0.2 mL of 0.1 M phosphate buffer (pH 6.8), and 0.5 mL of sample solution was prepared. To this mixture, 0.1 mL of mushroom tyrosinase (Sigma Co., 250 unit/mL) was added and incubated at 37 °C for 10 min. After incubation, the absorbance was measured at a wavelength of 475 nm to calculate the tyrosinase inhibitory activity.
# [11] = test system: B16F10 melanoma cells; test: Melanin content and morphology in α-MSH-induced B16F10 melanoma cells; format: cell-based, mouse; conditions: for Melanin content: α-MSH (200 nM) 24 h, α-MSH treated group 152.36%, 405 nm
# Description: as §2
# To measure melanin production in B16F10 cells, cells were seeded in 6-well plates at a density of 5 × 10^4 cells/well. After 24 h, the medium was replaced with fresh medium containing 2% FBS, 200 nM α-MSH, and various concentrations of DP. […] After incubation, the cells were washed with PBS, harvested by centrifugation, and the melanin content was visually inspected. The harvested cells were dissolved in 400 μL of 0.2 N NaOH solution and incubated at 60 °C for 1 h. The absorbance was measured at 405 nm using a microplate reader.
# [12] = test system: MC1R mRNA; test: RT-PCR of MC1R mRNA in α-MSH-stimulated B16F10 cells; format: cell-based, mouse; conditions: 0.1, 1, and 10 μM; α-MSH 200 nM; normalized to GAPDH
# Description: as §2, §3
sequence,measurement,setting,value
KGYSSYICDK [DP],ROS levels in H2O2-treated HaCaT cells,[1],significantly reduced
same,MITF mRNA level,[2],dose-dependent and significant decrease
same,Cytotoxicity in B16F10 melanoma cells,[3],No cytotoxicity was observed
same,Cell viability of H2O2-treated HaCaT cells,[4],enhanced cell viability in a dose-dependent manner
same,FRAP activity vs Vitamin C,"[5]; 1000 μM, p < 0.05","significant activity at 1000 μM, comparable to Vitamin C"
same,"FRAP activity, concentration dependence",[5]; FeSO4 equivalents,dose-dependent FRAP activity
same,Free radical scavenging activity,[6],free radical scavenging
same,Tyrosinase inhibitory activity,[7],tyrosinase inhibitory activities
same,Tyrosinase mRNA level,[8],dose-dependent and significant decrease
same,"ABTS radical scavenging, concentration dependence",[9]; 732 nm,concentration-dependent ABTS radical scavenging activity
same,ABTS radical scavenging,"[9]; concentrations above 20 μM, 732 nm",over 90%
same,ABTS radical scavenging vs Vit. C,"[9]; concentrations above 20 μM, p < 0.05",significantly outperforming Vit. C
same,Tyrosinase inhibitory activity,[10]; 62.5 μM,7.05%
same,Tyrosinase inhibitory activity,[10]; 125 μM,19.62%
same,Tyrosinase inhibitory activity,[10]; 250 μM,26.29%
same,Tyrosinase inhibitory activity,[10]; 500 μM,62.67%
same,Tyrosinase inhibitory activity,[10]; 1000 μM,84.38%
same,Melanin content,[11]; 0.1 μM,120.32%
same,Melanin content,[11]; 1 μM,105.24%
same,Melanin content,[11]; 10 μM,83.21%
same,"Melanin formation, morphological observation","[11]; starting from 0.1 μM, α-MSH 200 nM, 200× magnification",melanin formation was inhibited starting from the 0.1 μM concentration
same,MC1R mRNA level,[12],dose-dependent and significant decrease

# Reference: PMC11355700, “Antioxidant and Skin-Whitening Efficacy of a Novel Decapeptide (DP, [sequence]) Derived from Fish By-Products” (Marine Drugs, 2024)
